In US20190308987A1, “DUAL MODULATORS OF BOTH MU AND KAPPA OPIOID RECEPTORS” (priority 2016, published 2019):
Several values for one entry are separate records, joined by “and”; a condition that tells them apart may be missing. Equal entries are not always repeated. Entries after “also recorded” stand apart in the source; their conditions may differ.

Legend:
[1] = test system: visceral pain (abdominal stretches); test: Acetic acid induced writhing assay; type: in vivo, Swiss Webster mice
Protocol: To determine whether BNAP provides KOR mediated analgesia acetic acid-induced abdominal stretches were counted in mice. Swiss Webster mice were allowed to acclimate in individual testing cages for at least 10 min. Following the acclimation period the vehicle or BNAP was administered via s.c injection at the specified dose. After waiting for 10 min the mice were injected intraperitoneally with 10 mL/kg 0.6% (wt/vol) acetic acid and returned to their observation chambers. After the first 3 min, the number of stretches and abdominal contractions were counted for 15 min. All values shown for abdominal stretching experiments represent separate groups of mice (n=4-8) as each animal was tested only once and euthanized immediately after testing.
In order to confirm the involvement of the KOR in the analgesia produced by BNAP in the Acetic Acid Induced Writhing test, this test was performed in the presence of the KOR-specific antagonist nor-Binaltorphimine 2HCl (nor-BNI). According to previous literature, nor-BNI antagonist activity reaches optimal selectivity and efficacy in the writhing test at 24 hours post administration.^27, 28 These animals were injected sub-cutaneously with either 10 mg/kg nor-BNI or saline 24 hours prior to initiation of the writhing test. The writhing test was then performed as described above (n=5-6).

KOR = molecular target: T1, KOR (Homo sapiens, UniProt P41145); test: [35S]GTPγS-binding assay, KOR-expressing CHO cell membranes; type: biochemical
T1 construct: expressed in transfected cells; host or cells: CHO cells (membranes)
Protocol: [^35S]-GTPγS-Binding Assays using DOR- or KOR-Expressing CHO Cell Lines: Cell membranes (10 μg protein) were incubated with 10 μM GDP and 0.1 nM [^35S]-GTPγS in assay buffer in the presence and absence of varying concentrations of BNAP, 3 μM SNC80 (standard full agonist at DOR) or 3 μM U50,488H (standard full agonist at KOR) for 90 min at 30° C. Nonspecific binding was determined with 10 μM unlabeled GTPγS. The reaction was terminated and bound radioactivity determined as described above and previously.^9
(§1) All samples were assayed in triplicate and repeated at least twice for a total of 3 independent determinations. Results were reported as mean values±SEM. Concentration-effect curves were fit by nonlinear regression to a one-site binding model, using GraphPad Prism software, to determine EC50 and Emax values. IC50 values were obtained from Hill plots and analyzed by linear regression using Microsoft Excel software. Binding Ki values were determined from IC50 values using the Cheng-Prusoff equation: Ki=IC50/l+([L]/KD), where [L] is the concentration of […] and KD is the KD of the radioligand.

MOR = MOR (Mus musculus, UniProt P42866); test: [35S]GTPγS-binding assay, low MOR-expressing CHO cell line membranes; type: biochemical; design: expressed in transfected cells; host or cells: CHO cells (membranes)
Protocol: [^35S]GTPγS-binding Assays using a Low MOR-expressing CHO Cell Line: Cell membranes were incubated with varying concentrations of BNAP or 3 μM DAMGO (standard full agonist at MOR) in the presence of 10 μM GDP and 0.1 nM [^35S]GTPγS in assay buffer (50 mM Tris-HCl, pH 7.4, 3 mM MgCl2, 0.2 mM EGTA and 100 mM NaCl) for 90 min at 30° C. Nonspecific binding was determined using 10 μM unlabeled GTPγS. The incubation was terminated by rapid vacuum filtration through GF/B glass fiber filters. Bound radioactivity was determined by liquid scintillation spectrophotometry. Additional methodological details of the assay were described previously.^9
as §1

colonic motility = test: Colonic bead expulsion assay; type: in vivo, mice
Protocol: Mice were habituated and fasted as described above for the gastrointestinal transit analysis. […] At 20 min post-injection, animals were anesthetized with isoflurane (1-2 min) to insert a single 2-mm glass bead into the distal colon at a distance of 3 cm from the anus. Bead insertion was accomplished using a glass rod with a fire-polished end to avoid tissue damage and marked at 3 cm.^25 After bead insertion, mice were placed in individual cages and the time to bead expulsion was monitored. Animals were monitored for a maximum of 2 h unless bead expulsion occurred sooner.

intestinal transit = test: Charcoal meal test for gastrointestinal transit; type: in vivo, mice
Protocol: Forty-eight hours before testing, mice were placed in cages with raised mesh wire to suspend them above their bedding and prevent ingestion of feces or bedding. The animals were habituated for 24 h in the presence of food and water and then fasted for 24 h with free access to water as previously reported.^24 This time frame was chosen to deplete the intestine and colon of any feces. To maintain caloric intake and to avoid hypoglycemia, mice had access to a sugar water solution consisting of a final concentration of 5% dextrose for the first 8 h of the fasting period. […] At 30 min after the administration of the charcoal meal, the mice were euthanized by cervical dislocation, and the small intestine from the jejunum to the cecum was dissected and placed in cold saline to stop peristalsis. The distance traveled by the leading edge of the charcoal meal was measured relative to the total length of the small intestine, and the percentage of intestinal transit for each animal was calculated as percentage transit (charcoal distance)/(small intestinal length)×100. This is referred to as intestinal transit in the text.

[2] = test system: mouse proximal colon circular muscle; test: Colon circular muscle isometric tension recordings, proximal colon
Protocol: Mice were euthanized by cervical dislocation. The colon was dissected, flushed of its contents, and trimmed of mesentery. […] The tissues, 0.5 cm in length, were suspended vertically along the axis of the circular muscle with a metal triangle tied to a hook under 1 g of passive tension in 15 mL siliconized organ baths.
Data are presented as the mean±S.E.M, values of P≤0.05 were considered significant.

[3] = test system: guinea pig ileum Longitudinal Muscle Myenteric Plexus (LMMP); test: Electrical field stimulated contractions in LMMP strips
Protocol: Male albino guinea pigs (350-450 g) were euthanized by asphyxiation with CO2. A segment of ileum was removed and placed in a dissection bath filled with pre-oxygenated Krebs' solution (118 mM NaCl, 4.6 mM KCl, 1.3 mM NaH2PO4, 1.2 mM MgSO4, 25 mM NaHCO3, 11 mM glucose, and 2.5 mM CaCl2). Longitudinal Muscle Myenteric Plexus (LMMP) strips were prepared as previously described.^26 Electrical field stimulation (EFS) (50 V, 7.5 Hz, unless stated otherwise) was applied through concentric electrodes over longitudinal muscle or L-type stimulating electrodes over circular muscle strips to produce neurogenic contractions/relaxations. Drugs were added in single or cumulative doses depending on the assay to determine their inhibitory effects on the neurogenic responses.

Sequence of MOR (P42866 whole entry): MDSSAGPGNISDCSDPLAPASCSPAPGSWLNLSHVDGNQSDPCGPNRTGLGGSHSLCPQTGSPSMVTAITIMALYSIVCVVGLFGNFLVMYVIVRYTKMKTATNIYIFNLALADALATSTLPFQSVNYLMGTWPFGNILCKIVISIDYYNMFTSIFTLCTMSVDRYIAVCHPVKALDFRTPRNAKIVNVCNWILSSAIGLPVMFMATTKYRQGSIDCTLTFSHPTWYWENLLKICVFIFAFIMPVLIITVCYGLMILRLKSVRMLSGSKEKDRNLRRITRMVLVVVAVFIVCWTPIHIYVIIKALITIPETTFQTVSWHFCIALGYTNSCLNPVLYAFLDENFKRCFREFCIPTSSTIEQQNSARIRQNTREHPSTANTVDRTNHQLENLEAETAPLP
T1 sequence (P41145 whole entry): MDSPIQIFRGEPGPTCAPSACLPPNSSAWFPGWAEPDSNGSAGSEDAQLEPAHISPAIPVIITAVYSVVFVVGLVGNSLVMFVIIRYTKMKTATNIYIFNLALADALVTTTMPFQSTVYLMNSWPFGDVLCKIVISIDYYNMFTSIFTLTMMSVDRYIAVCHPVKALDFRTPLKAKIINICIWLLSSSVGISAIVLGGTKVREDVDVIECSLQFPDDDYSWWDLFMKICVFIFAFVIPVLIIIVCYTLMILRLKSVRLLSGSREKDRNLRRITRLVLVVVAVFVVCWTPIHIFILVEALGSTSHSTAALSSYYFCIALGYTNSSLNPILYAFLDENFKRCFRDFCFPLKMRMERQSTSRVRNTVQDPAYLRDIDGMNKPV

## O=C(N[C@@H]1CC[C@@]2(O)[C@H]3Cc4ccc(O)c5c4[C@@]2(CCN3CC2CC2)C1O5)c1cc[n+](Cc2ccccc2)cc1 (some centres unmarked) [BNAP]
[1]; 10 mg/kg nor-BNI s.c. 24 h before, morphine pelleted animals
  analgesia in presence of nor-BNI: effectively blocked the analgesia produced by BNAP
[1]; mice chronically treated with 75 mg morphine pellet
  active concentration in hypernociceptive model: active at three fold lower concentration; also recorded: active at concentrations three-fold lower
[1]; s.c., naive mice
  number of writhes: dose dependently reduced the number of writhes
KOR; 35S-GTP[γS]
  EC50: 2.9 ± 1.1 nM
KOR; Emax relative to full agonist U50,488H
  % max of agonist: 45.9±1.7%
MOR; EC50 (nM), 35S-GTP[γS]
  EC50: 4.84 nM and 4.8 nM
MOR; Emax relative to full agonist DAMGO
  % max of agonist: 14.6±0.9%
Colonic motility; BNAP alone 10 mg/kg, naive mice 17 min
  bead expulsion time: 43 min
Colonic motility; BNAP concurrently or 5 or 15 min before morphine
  antagonism of morphine's effect on bead expulsion: no significant antagonism of morphine's effects was observed
Intestinal transit; charcoal gavage, compound alone
  reduction of intestinal motility: 1.5 fold
Intestinal transit; mice treated acutely with morphine
  reversal of morphine induced inhibition of intestinal motility: unable to reverse morphine induced inhibition of intestinal motility
[2]; 1 nM antagonist, proximal colon
  inhibition of morphine-induced contractions: neither NAP nor BNAP showed significant inhibition of morphine-induced contractions
[2]; 10 nM antagonist, proximal colon (naive 6.8)
  morphine pD2 in presence of antagonist: 5.9
[2]; 100 nM versus 10 nM antagonist, proximal colon
  further reduction of morphine pD2: no further reduction of the morphine pD2
[2]; up to 30 μM, proximal colon preparation
  contractions induced by compound alone: Neither BNAP nor NAP alone at concentrations up to 30 μM induced contractions
[3]; Cavia porcellus, guinea pig ileum LMMP, read-out: pIC50 for inhibition of EFS contractions (converted)
  IC50: 13.8 nM
[3]; nor-BNI pretreatment 15 min, dose dependent
  effect of nor-BNI on agonist concentration-response curve: dose dependently shifted the BNAP concentration-response curve to the right
